Experimental data as given in US11026936B2, “Piperidinyl-propanone derivatives” (Merck Patent GmbH, priority 2016, dated 2021).
pIC50, pKd: −log10 of the molar value.

Tests used:
PDHK2 = PDHK2 (Homo sapiens (Human), UniProt Q15119); assay: Biochemical activity testing of PDHK2: PDC inactivation assay; conditions: human rec PDHK2, PDC from porcine heart, ATP 5 μM; read-out: IC50 PDHK2 (enzyme assay)
From the text: Biochemical Activity Testing of PDHK2: PDC Inactivation Assay
The biochemical activity assay for PDHK2 is based on the inactivation of PDC through phosphorylation by PDHK2. The assay is run in two steps: the enzymatic PDHK2 reaction in which isolated PDC is phosphorylated by PDHK2 with ATP as co-substrate and the PDC activity assay in which pyruvate and NAD are converted to acetyl-CoA and NADH. The PDC activity correlates to the increase in NADH and thereby is detectable directly via the increasing fluorescence signal (Exc 340 nm, Em 450 nm). Inhibition of PDHK2 results in a lower phosphorylation status and thereby a less decrease in activity of PDC and a stronger increase in NADH fluorescence signal.
The PDC inactivation assay is performed in Greiner 384-well microtiter plates and is used for high throughput screen. 4 μl of PDHK2 (human, rec, Carna Bioscience, 10 ng/μl-137 nM final concentration) and PDC (isolated from porcine heart, Sigma-Aldrich, 20 mU/ml final concentration) are incubated in the absence or presence of the test compound (10 dilution concentrations) for 30 min at room temperature in kinase buffer (15 mM potassium phosphate buffer, pH 7.0, 60 mM KCl, 1.5 mM DTT, 2.5 mM MgCl2, 0.0125% (w/v) BSA, 0.125% Pluronic F-68). The kinase reaction is started by the addition of 4 μl ATP substrate solution (fc 5 μM in kinase buffer). After 30 min incubation at 37° C. 40 μl of PDC reaction solution (100 mM Tris/HCl, pH 7.8, 0.5 mM EDTA, 1 mM MgCl2, 50 mM NaF, 0.25 mM Coenzyme A, 5 mM pyruvate, 1 mM NAD, 5 mM DTT, 1 mM thiamine pyrophosphate) is added. The first fluorescence measurement is performed on a Perkin Elmer Envision (Exc 340 nm, Em 450 nm). The reaction is incubated for 45 min at room temperature. Afterwards a second fluorescence measurement is performed and the PDC activity is calculated by the difference between both measurements. As full value for the PDHK2 assay the inhibitor-free PDHK2 reaction is used. The pharmacological zero value used is DCA (Sigma-Aldrich) in a final concentration of 3 mM. The inhibitory values (IC50) were determined using either the program Symyx Assay Explorer® or Condosseo® from GeneData.

human PDHK2 (12-407) = human PDHK2 (12-407) (Homo sapiens (Human), UniProt Q15119); assay: Isothermal titration calorimetry (ITC) binding; conditions: 30° C., pH 7.5
Procedure: Isothermal Titration Calorimetry
ITC measurements were performed with a VP-ITC micro calorimeter (Microcal, LLC/GE Healthcare Bio-Sciences AB, Uppsala, Sweden). In general titrations were performed by titrating the protein (50 μM) to the test compound (5 μM) in 12 μl injections. All binding experiments were carried out at 30° C. In general the test compounds were diluted form DMSO stock solutions into the measurement buffer with a maximum final concentration of 1% DMSO. The measurement buffer was 20 mM HEPES, 135 mM KCl, 1 mM TCEP, 2 mM MgCl2, 15 mM NaH2PO4, pH 7.5. The human PDHK2 (12-407) was produced in E. coli as his-tagged protein and purified by affinity chromatography. The tag was removed by side specific proteolysis. Before titration the protein buffer was changed to the measurement buffer containing the same DMSO concentration as the test compound dilution. ITC data analysis was performed using Origin 7 calorimetry software from the same supplier. For most measurements a binding model of one binding site was assumed. According to the applied mathematical model it is possible to calculate the binding constant (KA), the observed binding enthalpy (ΔH^obs) as well as the stoichiometry (N) of the formed complex. Preceding analysis the raw data was corrected for the heats of dilution by extrapolating from the saturation value from the end of titration. In order to allow for direct comparison between the respective experimental series and protein preparations the protein concentration was corrected by referencing titrations to a well behaved standard inhibitor. The apparent stoichiometry values defined the fraction of binding competent protein and compensated for relative errors in protein concentration measurements. This corrected protein concentration was used to set up ITC experiment series with test compounds. Any deviations from ideal 1:1 stoichiometry observed here were attributed to errors in compound concentration. This nominal compound concentration was corrected as well to achieve 1:1 stoichiometry in the fit.

[1] = system: PDH-E1alpha (pSer300) in HEK293T cells; assay: Cellular immunofluorescence assay, PDH-E1alpha (pSer300); type: cell-based; conditions: Homo sapiens, HEK-293T, 5 hours incubation, read-out: IC50 (cell data)
Procedure: Cellular Assay for Determination of Compound Activities
Compound activities were determined in a cellular immunofluorescence assay. Human HEK293T cells were seeded into black 384-well plates with clear bottom and grown overnight.
Next day, test compounds were added to the wells and the plates incubated for 5 hours. Following this, cells were fixed with formaldehyde, permeabilised and blocked. The primary antibody, Anti-PDH-E1alpha (pSer300), AP1064 (Merck Millipore) was added and incubated overnight in the plate wells. Next, cells were washed and the seconday antibody, Alexa Fluor 488, goat anti-rabbit ab (A-11008, Invitrogen) was added together with Hoechst 33258 (H3569, Invitrogen) and incubated for 1 hour in the plate wells. Finally, cells were washed and the plates were measured on the laser scanning cytometer acumen hci (TTpLabtech).
The raw data were normalized against a pharmacological inhibitor control and dose response curves were generated by plotting the percent effect values using the software package Genedata screener (Genedata).

C[C@@](O)(C(=O)N1CCC(C2(c3nnc(-c4ccccc4)o3)CC2)CC1)C(F)(F)F [Compound A5, (R)-3,3,3-Trifluoro-2-hydroxy-2-methyl-1-{4-[1-(5-phenyl-[1,3,4]oxadiazol-2-yl)-cyclopropyl]-piperidin-1-yl}-propan-1-one] showed a pIC50 (PDHK2) of 6.36, a pKd (human PDHK2 (12-407)) of 6.70 and a pIC50 [1] of 5.82.
CC1CN(C(=O)[C@@](C)(O)C(F)(F)F)CCC1C1(c2nnc(-c3ccccc3)[nH]2)CC1 (stereo partly drawn) [Compound A11, (R)-3,3,3-Trifluoro-2-hydroxy-2-methyl-1-{3-methyl-4-[1-(5-phenyl-1H-[1,2,4]triazol-3-yl)-cyclopropyl]-piperidin-1-yl}-propan-1-one] gave a pIC50 (PDHK2) of 6.43, a pKd (human PDHK2 (12-407)) of 8.08 and a pIC50 [1] of 6.92.
Molecule CC(C)(c1nnc(C2CCCCC2)[nH]1)C1CCN(C(=O)[C@@](C)(O)C(F)(F)F)CC1 [Compound A4, (R)-1-{4-[1-(5-Cyclohexyl-4H-[1,2,4]triazol-3-yl)-1-methyl-ethyl]-piperidin-1-yl}-3,3,3-trifluoro-2-hydroxy-2-methyl-propan-1-one] has a pIC50 (PDHK2) of 5.85, a pKd (human PDHK2 (12-407)) of 6.54 and a pIC50 [1] of 5.41.
C[C@@H]1CN(C(=O)[C@@](C)(O)C(F)(F)F)CC[C@@H]1C1(c2nnc(-c3ccc(F)cc3)[nH]2)CC1 [Compound A19, (R)-3,3,3-Trifluoro-1-((3S,4S)-4-{1-[5-(4-fluoro-phenyl)-4H-[1,2,4]triazol-3-yl]-cyclopropyl}-3-methyl-piperidin-1-yl)-2-hydroxy-2-methyl-propan-1-one] was tested, and the pIC50 (PDHK2) was 7.12, the pKd (human PDHK2 (12-407)) was 8.38 and the pIC50 [1] was 7.55.
C[C@@H]1CN(C(=O)[C@@](C)(O)C(F)(F)F)CC[C@@H]1C1(c2nnc(-c3ccccc3)[nH]2)CC1 [Compound A14, (R)-3,3,3-Trifluoro-2-hydroxy-2-methyl-1-{(3S,4S)-3-methyl-4-[1-(5-phenyl-4H-[1,2,4]triazol-3-yl)-cyclopropyl]-piperidin-1-yl}-propan-1-one] showed a pIC50 (PDHK2) of 6.89, a pKd (human PDHK2 (12-407)) greater than 8.70 and a pIC50 [1] of 7.72.
C[C@@H]1CN(C(=O)[C@@](C)(O)C(F)(F)F)CC[C@@H]1C1(c2nnc(-c3ccc(Cl)cc3)o2)CC1 [Compound A37, (R)-1-((3S,4S)-4-{1-[5-(4-Chloro-phenyl)-[1,3,4]oxadiazol-2-yl]-cyclopropyl}-3-methyl-piperidin-1-yl)-3,3,3-trifluoro-2-hydroxy-2-methyl-propan-1-one] gave a pIC50 (PDHK2) of 6.89, a pKd (human PDHK2 (12-407)) of 8.62 and a pIC50 [1] of 7.60.
For CC(C)(c1nnc(C2CCCCC2)o1)C1CCN(C(=O)[C@@](C)(O)C(F)(F)F)CC1 [Compound A10, (R)-1-{4-[1-(5-Cyclohexyl-[1,3,4]oxadiazol-2-yl)-1-methyl-ethyl]-piperidin-1-yl}-3,3,3-trifluoro-2-hydroxy-2-methyl-propan-1-one], the pIC50 (PDHK2) was 6.40, the pKd (human PDHK2 (12-407)) was 6.92 and the pIC50 [1] was 5.70.
